Assay results published in patent publication US6664290B1, “Oral or vaginal administration of mesoprostol in third stage labor” (University College London, priority 1994, dated 2003).
Read-outs that look alike come from different tables or passages of the source.

What was measured:
[1] = cited from earlier work; for Time of peak plasma levels: oral, substantially the same if administered vaginally
blood pressure [2] = conditions: animal studies; about 800 μg in a single dose; cited from earlier work
[3] = system: women in the third stage of labour; format: in vivo
Excerpt: The study protocol was reviewed and approved by the local Ethics Committee. Information sheets explaining the aims of the trial were distributed to potential participants either in the antenatal classes, antenatal clinics, and the Day Assessment Area. On admission to labour ward women were reminded about the trial and a written informed consent was obtained if they still wished to participate in the study.
The main objective of this study was to estimate the incidence of primary postpartum haemorrhage (PPH). This was defined as estimated blood loss of or more than 500 ml. Other measures of blood loss were also considered e.g. severe PPH i.e. >1000 ml; secondary PPH (after 24 hours); need for blood transfusion; use of therapeutic oxytocics (i.e. the need for extra oxytocics); length of third stage; incidence of manual removal of placenta; the need for subsequent evacuation of the retained products of conception; and the change in haemoglobin and packed cell volume in those who had instrumental delivery and/or who had blood loss of 500 ml or more compared to the Haemoglobin done late in pregnancy. Potential adverse effects of the drug used were also recorded e.g. incidence of vomiting, diarrhoea, shivering and hypertension (defined as diastolic blood pressure >100 or Systolic Blood pressure >150). All of these measures were documented by the midwife on call on a specially designed form with demographic information and information related to the type and circumstances of delivery.
The principle criteria for exclusion were: placenta praevia, multiple pregnancy, intrauterine death, gestational age less than 32 weeks gestation, women with previous PPH and women in their sixth pregnancy or more. In this pilot study, women with hypertension, preeclampsia or pregnancy induced hypertension were also excluded.
Syntometrine was not given but midwives were instructed to do so if they felt there was a clinical indication. Otherwise the delivery of the placenta was managed according to hospital policy (active management policy). Blood loss was estimated clinically by the attendant midwife or obstetrician. A sample of venous blood was obtained two days later after birth for haemoglobin and packed cell volume assessment from women who had instrumental delivery or from those who had blood loss of 500 ml or more. A record was kept of the last recorded blood pressure and temperature before birth and one hour after delivery.
Categorical variables are summarised as numbers and percentages, whereas continuous variables that are normally distributed are presented as means and standard deviations (SD), continuous variables that are not normally distributed are presented as medians and interquartile ranges (IQR). Comparisons between the systolic, diastolic blood pressure, haemoglobin, haematocrit and temperature before and after delivery were conducted via the paired t-test. Association between two categorical variables was assessed via Chi-square testing. The significance level was set to the 5% level.

blood pressure [4] = experiment: Blood pressure effect of Misoprostol in humans; format: in vivo, human; conditions: administered to humans; dosages up to 800 μg
blood pressure [5] = conditions: patients; about 400 μg; cited from earlier work
[6] = system: uterus (uterotonic contraction); conditions: intramuscular route, as part of Syntometrine; cited from earlier work
[7] = after delivery (one hour), 600 μg oral, n = 184
[8] = after minus before delivery, n = 184
[9] = before delivery (last recorded, before drug), n = 184
[10] = one hour after delivery vs last measured before delivery, not statistically significant

In the case of `CCCCC(C)(O)C/C=C/[C@H]1[C@H](O)CC(=O)[C@@H]1CCCCCCC(=O)O` (mixture of isomers) [Misoprostol acid], the “Time of peak plasma levels” value [1] is given as “less than fifteen”.

In the case of `CCCCC(C)(O)C/C=C/[C@H]1[C@H](O)CC(=O)[C@@H]1CCCCCCC(=O)OC` (mixture of isomers) [Misoprostol], the “Effect on blood pressure” value (blood pressure [2]) is listed as “mild hypotensive effect”, the “Number with blood loss >= 500 ml” value ([3]; 600 μg Misoprostol orally immediately after delivery, n = 237) is listed as 13 and the Cases of infection ([3]; 600 μg oral) is listed as “no cases”. For the same molecule, the “Incidence of shivering: patients who had epidural anaesthesia vs those who had not” value ([3]; 600 μg oral) was “no significant difference”, the “Incidence of vomiting relative to that reported when syntometrine is used” value ([3]; 600 μg oral) was “almost half” and the “% with blood loss > 1000 ml” value ([3]; 600 μg oral, n = 237) was “(0%)”. The “% with blood loss greater than 500” value ([3]; 600 μg oral, n = 237) was 3%, the “% with diastolic - 100 (mm Hg)” value ([3]; 600 μg oral, n = 237) was “(0%)” and the “% with haemoglobin < 9 (g/l)” value ([3]; 600 μg oral, n = 237) was “(2%)”. For the same molecule, the “% with systolic - 150 (mm Hg)” value ([3]; 600 μg oral, n = 237) was “(1%)”, the “% with third stage length >= 30 minutes” value ([3]; 600 μg oral, n = 237) was “(0.5%)” and the “Median (IQR) of blood loss” value ([3]; 600 μg oral, n = 237) was 200 mL. The “Median (IQR) third stage length” value ([3]; 600 μg oral, n = 237) was 5 min, the “Number who had shivering” value ([3]; 600 μg oral, n = 237) was 148 and the “Number with blood loss > 1000 ml” value ([3]; 600 μg oral, n = 237) was 0. The “Number with blood loss greater than 500” value ([3]; 600 μg oral, n = 237) was 6, the “Number with diastolic - 100 (mm Hg)” value ([3]; 600 μg oral, n = 237) was 0 and the “Number with haemoglobin < 9 (g/l)” value ([3]; 600 μg oral, n = 237) was 4. For the same molecule, the “Number with manual removal of placenta” value ([3]; 600 μg oral, n = 237) was 4, the “Number with repeat syntometrine injection” value ([3]; 600 μg oral, n = 237) was 12 and the “Number with systolic - 150 (mm Hg)” value ([3]; 600 μg oral, n = 237) was 2. The “Number with third stage length >= 30 minutes” value ([3]; 600 μg oral, n = 237) was 1, the “Patients for whom blood transfusion was required” value ([3]; 600 μg oral, n = 237) was 2 patients and the “Number who had diarrhoea (loose stool)” value ([3]; 600 μg oral, n = 237, first 24 hours after delivery) was 7. The Number who vomited ([3]; 600 μg oral, n = 237, first hour after delivery) was 19, the Duration of shivering ([3]; 600 μg oral, self-limiting, twenty minutes after swallowing the tablets) was 10 to 15 min and the “Temperature, mean” value ([3]; after delivery (one hour), 600 μg oral, n = 182) was 37.1 C. The “Diastolic blood pressure, mean” value [3, 7] was 73.0 mm Hg, the “Systolic blood pressure, mean” value [3, 7] was 118.4 mm Hg and the “Haematocrit, mean” value ([3]; after delivery, 600 μg oral, n = 73) was 0.33. For the same molecule, the “Haematocrit, mean difference” value ([3]; after minus before delivery, n = 73) was −0.01, the “Temperature, mean difference (increase)” value ([3]; after minus before delivery, n = 182) was 0.5 C and the “Diastolic blood pressure, mean difference” value [3, 8] was −0.8 mm Hg. For the same molecule, the “Systolic blood pressure, mean difference” value [3, 8] was −1.0 mm Hg, the “Diastolic blood pressure, mean” value [3, 9] was 73.8 mm Hg and the “Systolic blood pressure, mean” value [3, 9] was 119.3 mm Hg. For the same molecule, the “Haematocrit, mean” value ([3]; before delivery, n = 73) was 0.34, the “Temperature, mean” value ([3]; before delivery, n = 182) was 36.6 C and the “Mean reduction of diastolic blood pressure (SE)” value [3, 10] was 0.8 (0.6) mm Hg. For the same molecule, the “Mean reduction of systolic blood pressure (SE)” value [3, 10] was 1.0 (SE=0.9) mm Hg, the Hypertensive effects ([3]; women who were normotensive before labour, 600 μg oral) was “could not identify any hypertensive effects” and the Hypertensive effect (blood pressure [4]) was “not hypertensive”. For the same molecule, the “Unchanged drug in the plasma or urine after use” value ([1]; extensive metabolism during and/or prior to gastro intestinal absorption) was “no unchanged drug is detected”, the “Time of peak plasma levels” value [1] was “less than fifteen” and the “Effect on blood pressure” value (blood pressure [5]) was “substantially normotensive”.

In the case of `CC[C@H](C)[C@@H]1NC(=O)[C@H](Cc2ccc(O)cc2)NC(=O)[C@@H](N)CSSC[C@@H](C(=O)N2CCC[C@H]2C(=O)N[C@@H](CC(C)C)C(=O)NCC(N)=O)NC(=O)[C@H](CC(N)=O)NC(=O)[C@H](CCC(N)=O)NC1=O` [syntocinon], the Time to action [6] is listed as “about 2.5 minutes”.
